According to PubChem BioAssay AID248 (DTP/NCI, 2004):
“And” between values parts separate entries of the source, which are not always exact repeats. Identical values can stand only once. Inconclusive results and toxic doses are left out. Cut-off read from the data, not from the text of the source: active = T/C of 150% or more; inactive = T/C below 125%.

Tested on: L1210 leukemia ip in BDF1 mice, survival T/C
Test: NCI In Vivo Anticancer Drug Screen. Data for tumor model L1210 Leukemia (intraperitoneal) in B6D2F1 (BDF1) mice
Details: endpoint: mean survival time, higher = longer survival
Method in brief: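 Mice bearing the transplanted tumor received compound or vehicle. Survival of the treated group was divided by that of the vehicle-treated control group to give the ratio.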

[1] = dose: 100.0 mg/kg/injection, schedule: Q01DX009 (ip), vehicle: saline with Tween-80
[2] = dose: 200.0 mg/kg/injection, schedule: Q01DX009 (ip), vehicle: saline with Tween-80
[3] = dose: 200.0 mg/kg/injection, schedule: Q04DX003 (ip), vehicle: saline with Tween-80
[4] = dose: 400.0 mg/kg/injection, schedule: Q04DX003 (ip), vehicle: saline with Tween-80
[5] = dose: 100.0 mg/kg/injection, schedule: Q04DX002 (ip), vehicle: saline
[6] = dose: 200.0 mg/kg/injection, schedule: Q04DX002 (ip), vehicle: saline
[7] = dose: 400.0 mg/kg/injection, schedule: Q04DX002 (ip), vehicle: saline
[8] = dose: 100.0 mg/kg/injection, schedule: Q04DX003 (ip), vehicle: saline with Tween-80
[9] = dose: 12.5 mg/kg/injection, schedule: Q04DX002 (ip), vehicle: saline with Tween-80
[10] = dose: 25.0 mg/kg/injection, schedule: Q04DX002 (ip), vehicle: saline with Tween-80
[11] = dose: 50.0 mg/kg/injection, schedule: Q04DX002 (ip), vehicle: saline with Tween-80
[12] = dose: 100.0 mg/kg/injection, schedule: Q01DX001 (ip), vehicle: saline
[13] = dose: 200.0 mg/kg/injection, schedule: Q01DX001 (ip), vehicle: saline
[14] = dose: 400.0 mg/kg/injection, schedule: Q01DX001 (ip), vehicle: saline
[15] = dose: 75.0 mg/kg/injection, schedule: Q01DX001 (ip), vehicle: carboxymethylcellulose (CMC)
[16] = dose: 50.0 mg/kg/injection, schedule: Q01DX001 (ip), vehicle: saline
[17] = dose: 50.0 mg/kg/injection, schedule: Q04DX002 (ip), vehicle: saline
[18] = dose: 100.0 mg/kg/injection, schedule: Q01DX001 (ip), vehicle: other

Measured: T/C

CSc1ccc(NC(=O)Oc2ccccn2)cc1
inactive: dose: 100.0 mg/kg/injection, schedule: Q01DX001 (ip), vehicle: saline with Tween-80 89 % of control | [1] 97 % of control | dose: 100.0 mg/kg/injection, schedule: Q04DX002 (ip), vehicle: saline with Tween-80 93 % of control and 94 % of control | dose: 200.0 mg/kg/injection, schedule: Q01DX001 (ip), vehicle: saline with Tween-80 103 % of control | [2] 90 % of control | dose: 200.0 mg/kg/injection, schedule: Q04DX002 (ip), vehicle: saline with Tween-80 96 % of control and 114 % of control | [3] 88 % of control | dose: 400.0 mg/kg/injection, schedule: Q01DX001 (ip), vehicle: saline with Tween-80 105 % of control | dose: 400.0 mg/kg/injection, schedule: Q04DX002 (ip), vehicle: saline with Tween-80 95 % of control and 96 % of control | [4] 97 % of control

CCCCCCCCC(=O)N(CC)CC
inactive: [5] 111 % of control | [6] 103 % of control | [7] 96 % of control

C1CC2OC2C1 (stereo not given)
inactive: dose: 100.0 mg/kg/injection, schedule: Q01DX009 (ip), vehicle: saline 104 % of control | [8] 97 % of control | dose: 200.0 mg/kg/injection, schedule: Q01DX009 (ip), vehicle: saline 108 % of control | [3] 100 % of control | dose: 400.0 mg/kg/injection, schedule: Q01DX009 (ip), vehicle: saline 105 % of control | [4] 90 % of control

C=CCc1cccc(O)c1O
inactive: [9] 108 % of control | [10] 96 % of control | [11] 108 % of control

CC(C)Sc1nn2nnnc2c2ccccc12
inactive: dose: 50.0 mg/kg/injection, schedule: Q04DX003 (ip), vehicle: saline 94 % of control | dose: 100.0 mg/kg/injection, schedule: Q04DX003 (ip), vehicle: saline 97 % of control | dose: 200.0 mg/kg/injection, schedule: Q04DX003 (ip), vehicle: saline 103 % of control

O=C(O)c1cc(N2C(=O)C=CC2=O)cc(N2C(=O)C=CC2=O)c1
inactive: dose: 11.1 mg/kg/injection, schedule: Q01DX Z (ip), vehicle: methylcellulose (MC) 102 % of control | dose: 16.6 mg/kg/injection, schedule: Q01DX Z (ip), vehicle: methylcellulose (MC) 102 % of control | dose: 25.0 mg/kg/injection, schedule: Q01DX Z (ip), vehicle: methylcellulose (MC) 94 % of control

CCCCC(=O)N/N=C/C=C/c1ccccc1[N+](=O)[O-]
inactive: [12] 97 % of control | [13] 105 % of control | [14] 105 % of control

NS(=O)(=O)c1c([N+](=O)[O-])ncn1C1OC(COC(=O)c2ccccc2)C(OC(=O)c2ccccc2)C1OC(=O)c1ccccc1 (stereo not given)
inactive: dose: 100.0 mg/kg/injection, schedule: Q01DX005 (ip), vehicle: saline 93 % of control | dose: 200.0 mg/kg/injection, schedule: Q01DX005 (ip), vehicle: saline 95 % of control

COc1c(Br)c(-c2ccccc2)nc2ccccc12
inactive: [12] 100 % of control | [13] 88 % of control | [14] 92 % of control

c1ccc2c(c1)ccc1nc3ccc4ccccc4c3cc12
inactive: dose: 5.0 mg/kg/injection, schedule: Q01DX001 (ip), vehicle: saline 86 % of control | dose: 20.0 mg/kg/injection, schedule: Q01DX001 (ip), vehicle: saline 97 % of control | dose: 40.0 mg/kg/injection, schedule: Q01DX001 (ip), vehicle: saline 95 % of control | dose: 80.0 mg/kg/injection, schedule: Q01DX001 (ip), vehicle: saline 97 % of control

C/C=C(/C#N)c1ccccc1
inactive: dose: 50.0 mg/kg/injection, schedule: Q01DX009 (ip), vehicle: saline with Tween-80 107 % of control | [1] 106 % of control | [8] 90 % of control | [2] 100 % of control | [3] 96 % of control

COc1ccc(COC(=O)Nc2ccccc2)cc1
inactive: [15] 101 % of control | dose: 150.0 mg/kg/injection, schedule: Q01DX001 (ip), vehicle: carboxymethylcellulose (CMC) 98 % of control

CCCCNc1c(C(=O)OCC)cnc2c1cnn2CC
inactive: dose: 12.0 mg/kg/injection, schedule: Q01DX009 (ip), vehicle: Klucel (hydroxypropylcellulose) (HPC) 100 % of control | dose: 25.0 mg/kg/injection, schedule: Q01DX009 (ip), vehicle: Klucel (hydroxypropylcellulose) (HPC) 96 % of control | dose: 50.0 mg/kg/injection, schedule: Q01DX009 (ip), vehicle: Klucel (hydroxypropylcellulose) (HPC) 106 % of control | dose: 75.0 mg/kg/injection, schedule: Q01DX009 (ip), vehicle: Klucel (hydroxypropylcellulose) (HPC) 96 % of control

O=C1NC(=O)C(c2cccc(F)c2)N1 (stereo not given)
inactive: [16] 97 % of control | [12] 94 % of control | [13] 94 % of control | [14] 111 % of control

Nc1ccc2c(ccc3ccc4ccccc4c32)c1
inactive: [15] 97 % of control

C=CC(=O)N1CCN(C(=O)C=C)CC1 (tested in a mixture with another compound)
inactive: dose: 0.04 mg/kg/injection, schedule: Q04DX002 (ip), vehicle: saline 101 % of control | dose: 0.09 mg/kg/injection, schedule: Q04DX002 (ip), vehicle: saline 97 % of control | dose: 0.18 mg/kg/injection, schedule: Q04DX002 (ip), vehicle: saline 97 % of control and 100 % of control | dose: 0.75 mg/kg/injection, schedule: Q04DX002 (ip), vehicle: saline 109 % of control | dose: 1.5 mg/kg/injection, schedule: Q04DX002 (ip), vehicle: saline 103 % of control | dose: 3.12 mg/kg/injection, schedule: Q04DX002 (ip), vehicle: saline 106 % of control | dose: 6.25 mg/kg/injection, schedule: Q04DX002 (ip), vehicle: saline + alcohol 97 % of control | dose: 6.25 mg/kg/injection, schedule: Q04DX002 (ip), vehicle: saline 103 % of control | dose: 12.5 mg/kg/injection, schedule: Q04DX002 (ip), vehicle: saline + alcohol 101 % of control | [9] 94 % of control | dose: 12.5 mg/kg/injection, schedule: Q04DX002 (ip), vehicle: saline 103 % of control | dose: 25.0 mg/kg/injection, schedule: Q04DX002 (ip), vehicle: saline + alcohol 104 % of control and 89 % of control | [10] 109 % of control | dose: 50.0 mg/kg/injection, schedule: Q04DX002 (ip), vehicle: saline + alcohol 92 % of control | [11] 91 % of control | [17] 96 % of control and 105 % of control | dose: 100.0 mg/kg/injection, schedule: Q04DX002 (ip), vehicle: saline + alcohol 100 % of control | [5] 100 % of control and 97 % of control and 105 % of control | [6] 97 % of control and 90 % of control | [7] 90 % of control

CC(CCCCCOC(=O)Nc1ccccc1)OC(=O)Nc1ccccc1 (stereo not given)
inactive: [18] 98 % of control | dose: 200.0 mg/kg/injection, schedule: Q01DX001 (ip), vehicle: other 87 % of control | dose: 400.0 mg/kg/injection, schedule: Q01DX001 (ip), vehicle: other 96 % of control

CCC(O)C1CCCO1 (stereo not given)
inactive: dose: 25.0 mg/kg/injection, schedule: Q04DX002 (ip), vehicle: saline 103 % of control | [17] 92 % of control | [12] 104 % of control | [5] 103 % of control | [13] 95 % of control | [14] 93 % of control

CC(=O)OCc1ccc[n+](CCc2c[nH]c3ccccc23)c1
inactive: [8] 95 % of control | [3] 90 % of control

OCC(O)C(O)C(O)C(O)C(c1ccc(Cl)cc1)c1ccc(Cl)cc1 (stereo not given)
inactive: [16] 101 % of control and 98 % of control | [12] 101 % of control and 93 % of control and 88 % of control | [13] 95 % of control and 91 % of control | [14] 95 % of control and 96 % of control

CCCCCc1cc(O)c2c3c(c(=O)oc2c1)CCC(=O)C3
inactive: dose: 100.0 mg/kg/injection, schedule: Q01DX001 (ip), vehicle: carboxymethylcellulose (CMC) 97 % of control | dose: 200.0 mg/kg/injection, schedule: Q01DX001 (ip), vehicle: carboxymethylcellulose (CMC) 100 % of control | dose: 400.0 mg/kg/injection, schedule: Q01DX001 (ip), vehicle: carboxymethylcellulose (CMC) 97 % of control

C/C(CCC1=CC=CC1=O)=N\NC(N)=O
inactive: [18] 98 % of control
